Experimental data taken from patent US5220042A, “1,4-benzoquinone derivatives and benzene derivatives, and process for preparing the same” (priority 1984, dated 1993).
Read-outs that look alike come from different tables or passages of the source.

Key:
Format in all cases: cell-based, guinea pig (Hartley strain)
[1] = tested on: SRS-A release from lung fragments; assay: Inhibition of SRS-A release from sensitized guinea pig lung fragments; conditions: Cavia porcellus
Description: (§1) Inhibitory activities on the release of SRS-A and histamine of the present compounds were determined.
(§2) A male guinea pig (Hartley strain) (body weight: about 300 g) was sensitized by a method according to P. Anderson: "Int. Archs. Allergey appln. Immunol., Vol. 64, pages 249-258 (1981). Thus, 30 mg/kg of cyclophosphamide was intraperitoneally administered to the guinea pig, and 2 days after 1 microgram of ovalbumin (manufactured by Sigma Chemical Co., St. Louis, Mo. U. S. A.) together with 10 mg of aluminium hydroxide gel were intraperitoneally administered so as to have the animal sesitized.
(§3) 50 Days after the sesitization, the animal was killed by exsanguination, and the lung was isolated from the animal and was perfused with 20 ml of Tyrode's solution, then immersed in an ice-cooled Tyrode's solution. The parenchyma of the lung was cut by using McIlwain-type tissue chopper to make it into fragments of lung having 2 mm square and the fragments were washed with Tyrode's solution. 400 Milligrams of sectiles of lung were suspended in 3.6 ml of Tyrode's solution, and this suspension was preincubated at 37° C. for 5 minutes, then 4 microliters of dimethyl sulfoxide solution of the test compound, in the case of control 4 microliters of dimethyl sulfoxide alone was added to the suspension. 5 Minutes after, 0.4 ml of 100 micrograms/ml of ovalbumin solution added so as to release SRS-A for 10 minutes. The suspension was ice-cooled and filtered through gauze, the filtrate was centrifuged at 2,000 rpm for 10 minutes and the supernatant was collected. The supernatant was stored in freezed state at -80° C. until bio-assay was conducted.
(§4) Amounts of SRS-A and histamine contained in the supernatant were determined by bio-assay using ileum of guinea pig.
(§5) A piece of the ileum (2-3 cm of length) positioned from 15-25 cm from the opening portion of ileocecum was isolated from a male guinea pig (Hartley strain) (body weight: 400-600 g) which was fasted for 24 hours. The piece of ileum was hanged vertically in a Magnus tube which was filled with 10 ml of Tyrode's solution containing 10^-7 M of atropine sulfate under air stream conditions. The isotonic contraction of the piece of the ileum was measured at 0.5 g of load by using an isotonic transducer "TD-112S" (manufactured by Nihon Koden Co., Ltd.). The measurements were carried out after the reaction to histamine of the piece of ileum was kept constant. Bioassay of histamine was measured by using the value of contraction shown in 30 seconds after the addition of the supernatant. Bioassay of on SRS-A was measured by using the value of contraction shown at 2 minutes after the addition of the supernatant in the presence of 10^-6 M of pyrilamine (manufactured by Sigma Chemical Co.), and compared with the standard curve of crude SRS-A released from the fragments of the lung.

[2] = tested on: histamine release from lung fragments; assay: Inhibition of histamine release from sensitized guinea pig lung fragments; conditions: Cavia porcellus, read-out: Inhibition ratio (%) Histamine; for inhibition at 3 µM: Table 2, dose 3 μM; for inhibition at 30 µM: Table 2, dose 30 μM
Description: as §1, §2, §3, §4, §5

5-lipoxygenase = biological target: T1, 5-lipoxygenase (Cavia porcellus, UniProt A0A286X958); assay: 5-Lipoxygenase inhibitory activity (conversion of 14C-arachidonic acid to 5-HETE) in guinea pig peritoneal exudate cells; conditions: read-out: inhibition ratio (%) of 5-lipoxygenase activity; for inhibition at 0.3 µM: concentration 3 × 10^-7 M; for inhibition at 1 µM: concentration 10^-6 M; for inhibition at 0.1 µM: concentration 10^-7 M; for inhibition at 3 µM: concentration 3 × 10^-6 M; for inhibition at 10 µM: concentration 10^-5 M
T1 construct: endogenous in cells; host or cells: guinea pig (Hartley strain) casein-elicited peritoneal exudate cells, intact cell suspension
T1 sequence (A0A286X958 1-674): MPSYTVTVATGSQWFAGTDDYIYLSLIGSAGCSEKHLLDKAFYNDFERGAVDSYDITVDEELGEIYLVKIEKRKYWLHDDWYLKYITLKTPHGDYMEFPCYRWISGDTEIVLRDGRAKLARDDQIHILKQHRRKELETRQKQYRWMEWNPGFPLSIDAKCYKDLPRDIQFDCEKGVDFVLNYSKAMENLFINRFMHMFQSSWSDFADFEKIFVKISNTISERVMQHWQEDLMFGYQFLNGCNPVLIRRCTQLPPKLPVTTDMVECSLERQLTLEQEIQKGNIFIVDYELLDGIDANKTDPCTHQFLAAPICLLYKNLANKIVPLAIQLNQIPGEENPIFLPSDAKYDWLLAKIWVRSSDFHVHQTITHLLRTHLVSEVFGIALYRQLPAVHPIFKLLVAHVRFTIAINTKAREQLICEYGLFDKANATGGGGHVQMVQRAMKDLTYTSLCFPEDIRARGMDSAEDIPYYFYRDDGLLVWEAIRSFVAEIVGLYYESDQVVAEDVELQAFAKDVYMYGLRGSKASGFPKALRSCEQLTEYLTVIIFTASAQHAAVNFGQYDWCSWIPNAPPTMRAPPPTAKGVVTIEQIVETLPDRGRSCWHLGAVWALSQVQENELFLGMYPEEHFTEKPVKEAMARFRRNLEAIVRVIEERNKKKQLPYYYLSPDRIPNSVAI
Description: 5-Lipoxygenase inhibitory activity of the present compounds was determined by a method according to procedures described in "J. Biol. Chem., Vol. 256, pages 4156-4159, (1981, Ibid. Vol. 258, pages 5754-5758 (1983).
(1) Preparation of Test Cells
A guinea pig (Hartley strain) (500-650 g body weight) was intraperitoneally administered with 2%-casein solution in 3/50 the volume of body weight. 14 Hours after the administration, the animal was sacrificed by bleeding and the peritoneal cavity was washed with Dulbecco's phosphate buffered saline (PBS) containing 3 U/ml of heparin and the exudate cells were harvested. The sample of cells was washed twice with Dulbecco's PBS (-), then the cells were suspended in Dulbecco's PBS (-), containing 1 mM of calcium chloride and 5.5 mM of glucose, so as to make a suspension having the concentration of 2.5×10^7 cells/ml.
To 0.2 ml of the above-mentioned cell suspension was added 10^-5 M of Indomethacine, and incubated at 30° C. for 2 minutes. Each of the appropriate concentrations of test compounds was added to the suspension respectively, further incubated for 2 minutes. Next, 10 μm of Ionophore A23187 (manufactured by Calbiochem-Behring, San Diego, Calif., U. S. A) was added to the suspension, further, 10 μm of ^14 C-arachidonic acid (manufactured by Amersham Japan, Ltd., Tokyo, Japan) was added and initiated the reaction. 3 Minutes after the initiation of the reaction, 0.1 ml of 0.2M-citric acid was added so as to terminate the reaction. 1.2 Milliliters of ethyl acetate was added to the reaction mixture and shaked for 5 minutes. The reaction mixture was centrifuged at 3,000 rpm for 5 minutes so as to separate the organic layer from the aqueous layer. 1 Milliliter of the organic layer (the upper layer) was dehydrated by passing through a mini-column packed with anhydrous sodium sulfate. The dehydrated organic layer was dried under nitrogen gas stream. The residue obtained was dissolved in ethyl acetate, and the total amount of the ethyl acetate solution was spotted onto thin layer chromochromatography (TCL) plate (Art. 11845 manufactured by E. Merck A. G.). The TCL was carried out with a mixed solvent of diethyl ether:petroleum:ether:acetic acid (50:50:1 volume/volume), then the radioactive metabolites on the plate were detected by using "Ultrafilm ^3 H" (a trademark for a X-ray film, manufactured by LKB Co.). Each fractions corresponding to the metabolites was scraped in to a scintillation vial, and 5 ml of "Scintilator ACS-II" (manufactured by Amersham Japan, Ltd.), was added then the radio-activity was determined by means of a liquid scintillation counter.

[3] = Table 2, dose 3 μM, read-out: Inhibition ratio (%) SRS-A
[4] = Table 2, dose 30 μM, read-out: Inhibition ratio (%) SRS-A
[5] = Table 2B, 3 μM, read-out: Inhibitory activities on SRS-A (%)
[6] = Table 2B, 30 μM, read-out: Inhibitory activities on SRS-A (%)

Row | Structure (SMILES) | inhibition at 0.3 µM (5-lipoxygenase) [%] | inhibition at 1 µM (5-lipoxygenase) [%] | inhibition at 0.1 µM (5-lipoxygenase) [%] | inhibition at 3 µM (5-lipoxygenase) [%] | inhibition at 10 µM (5-lipoxygenase) [%] | inhibition at 3 µM [1, 3] [%] | inhibition at 30 µM [1, 4] [%] | inhibition at 3 µM [2] [%] | inhibition at 30 µM [2] [%] | inhibition at 3 µM [1, 5] [%] | inhibition at 30 µM [1, 6] [%]
1 | COC1=CC(=O)C(OC)=C(CCCCCCC2=C(OC)C(=O)C=C(OC)C2=O)C1=O [Test Compound No. 10, 2,2'-Hexamethylenebis(3,6-dimethoxy-1,4-benzoquinone)] | 58 | 81 | 17 | – | – | 73.4 | > 95.2 | 20.6 | 22.4 | – | –
2 | COC1=CC(=O)C(OC)=C(CCCCCC2=C(OC)C(=O)C(C)=C(OC)C2=O)C1=O [Test Compound No. 18, 2,5-Dimethoxy-3-methyl-6-[5-(2,5-dimethoxy-1,4-benzoquinon-3-yl)pentyl]-1,4-benzoquinone] | 33 | 53 | 17 | – | – | 62.9 | 91.9 | 14.4 | 8.3 | – | –
3 | CCCCC#CCCCCCCCCCC1=C(OC)C(=O)C=C(OC)C1=O [Test Compound No. 32, 2,5-Dimethoxy-3-(10-pentadecynyl)-1,4-benzoquinone] | 36 | 56 | – | 80 | 87 | – | – | – | – | 12.4 | 26
4 | CCCC/C=C\CCCCCC1=C(OC)C(=O)C=C(OC)C1=O [Test Compound No. 33, 2,5-Dimethoxy-3-(Z-6-undecenyl)-1,4-benzoquinone] | 51 | 87 | – | 91 | 89 | – | – | – | – | 19.6 | 33.4
5 | CCCC/C=C\CCCCCCCC1=C(OC)C(=O)C=C(OC)C1=O [Test Compound No. 34, 2,5-Dimethoxy-3-(Z-8-tridecenyl)-1,4-benzoquinone] | 26 | 37 | – | 73 | 89 | – | – | – | – | 3.2 | 0.8
6 | CCCCC#CCCCCCC1=C(OC)C(=O)C=C(OC)C1=O [compound 30] | 39 | 75 | – | 92 | 91 | – | – | – | – | 23.8 | 73.4
7 | CCCCC#CCCCCCCCC1=C(OC)C(=O)C=C(OC)C1=O [compound 31] | 43 | 73 | – | 91 | 93 | – | – | – | – | 17 | 37.7

Now from value to compound, other results behind:

Row | inhibition at 0.3 µM (5-lipoxygenase) [%] | inhibition at 1 µM (5-lipoxygenase) [%] | inhibition at 0.1 µM (5-lipoxygenase) [%] | inhibition at 3 µM (5-lipoxygenase) [%] | inhibition at 10 µM (5-lipoxygenase) [%] | Structure (SMILES) | inhibition at 3 µM [1, 3] [%] | inhibition at 30 µM [1, 4] [%] | inhibition at 3 µM [2] [%] | inhibition at 30 µM [2] [%] | inhibition at 3 µM [1, 5] [%] | inhibition at 30 µM [1, 6] [%]
8 | 64 | 88 | 44 | – | – | COC1=CC(=O)C(OC)=C(CCCCCCCC2=C(OC)C(=O)C=C(OC)C2=O)C1=O [Test Compound No. 11, 2,2'-Heptamethylenebis(3,6-dimethoxy-1,4-benzoquinone)] | 32.5 | 85.7 | -8.4 | -3.6 | 32.5 | 85.7
9 | 72 | 87 | 36 | – | – | COC1=CC(=O)C(OC)=C(CCCCCCCCC2=C(OC)C(=O)C=C(OC)C2=O)C1=O [Test Compound No. 12, 2,2'-Octamethylenebis(3,6-dimethoxy-1,4-benzoquinone)] | 26.9 | 71.7 | 2.4 | -2.2 | – | –
10 | 78 | 89 | 34 | – | – | COC1=CC(=O)C(OC)=C(CCCCCCCCCCC2=C(OC)C(=O)C=C(OC)C2=O)C1=O [Test Compound No. 14, 2,2'-Decamethylenebis(3,6-dimethoxy-1,4-benzoquinone)] | 4.5 | 29.2 | -12.6 | -23.5 | – | –
11 | 37 | 77 | 5 | – | – | COC1=CC(=O)C(OC)=C(CCCCCCCCCCCCC2=C(OC)C(=O)C=C(OC)C2=O)C1=O [Test Compound No. 15, 2,2'-Dodecamethylenebis(3,6-dimethoxy-1,4-benzoquinone)] | 3.4 | 3.8 | -10.4 | -16 | – | –
